Experimental data published in PubChem BioAssay AID248 (DTP/NCI, 2004).
Toxic doses and inconclusive results are not listed. Rule as the data show it: active = T/C of 150% or more; inactive = T/C below 125%.

System: L1210 leukemia ip in BDF1 mice, survival T/C
Experiment: NCI In Vivo Anticancer Drug Screen. Data for tumor model L1210 Leukemia (intraperitoneal) in B6D2F1 (BDF1) mice
Conditions: endpoint: mean survival time, higher = longer survival
In short: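 Read-out is survival time, reported as the treated-group measurement over the vehicle-control measurement.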

[1] = dose: 100.0 mg/kg/injection, schedule: Q04DX003 (ip), vehicle: Klucel (hydroxypropylcellulose) (HPC)
[2] = dose: 200.0 mg/kg/injection, schedule: Q04DX003 (ip), vehicle: Klucel (hydroxypropylcellulose) (HPC)
[3] = dose: 400.0 mg/kg/injection, schedule: Q04DX003 (ip), vehicle: Klucel (hydroxypropylcellulose) (HPC)
[4] = dose: 100.0 mg/kg/injection, schedule: Q01DX001 (ip), vehicle: carboxymethylcellulose (CMC)
[5] = dose: 200.0 mg/kg/injection, schedule: Q01DX001 (ip), vehicle: carboxymethylcellulose (CMC)
[6] = dose: 400.0 mg/kg/injection, schedule: Q01DX001 (ip), vehicle: carboxymethylcellulose (CMC)
[7] = dose: 100.0 mg/kg/injection, schedule: Q01DX001 (ip), vehicle: saline
[8] = dose: 200.0 mg/kg/injection, schedule: Q01DX001 (ip), vehicle: saline
[9] = dose: 50.0 mg/kg/injection, schedule: Q01DX009 (ip), vehicle: saline with Tween-80
[10] = dose: 100.0 mg/kg/injection, schedule: Q01DX009 (ip), vehicle: saline with Tween-80
[11] = dose: 200.0 mg/kg/injection, schedule: Q01DX009 (ip), vehicle: saline with Tween-80
[12] = dose: 50.0 mg/kg/injection, schedule: Q01DX009 (ip), vehicle: Klucel (hydroxypropylcellulose) (HPC)
[13] = dose: 100.0 mg/kg/injection, schedule: Q01DX009 (ip), vehicle: Klucel (hydroxypropylcellulose) (HPC)
[14] = dose: 200.0 mg/kg/injection, schedule: Q01DX009 (ip), vehicle: Klucel (hydroxypropylcellulose) (HPC)
[15] = dose: 100.0 mg/kg/injection, schedule: Q01DX001 (ip), vehicle: Klucel (hydroxypropylcellulose) (HPC)
[16] = dose: 200.0 mg/kg/injection, schedule: Q01DX001 (ip), vehicle: Klucel (hydroxypropylcellulose) (HPC)
[17] = dose: 400.0 mg/kg/injection, schedule: Q01DX001 (ip), vehicle: Klucel (hydroxypropylcellulose) (HPC)

Measured: T/C

C=CCC1(CCCC)C(=O)NC(=O)NC1=O
inactive: dose: 75.0 mg/kg/injection, schedule: Q01DX001 (ip), vehicle: saline 89 % of control | dose: 150.0 mg/kg/injection, schedule: Q01DX001 (ip), vehicle: saline 105 % of control

O=C(CNC(=O)OCc1ccccc1)NCC(=O)NC(Cc1c[nH]c2ccccc12)C(=O)OCc1ccccc1 (stereo not given)
inactive: [1] 100 % of control | [2] 101 % of control | [3] 94 % of control

N#CCCCCCCCCC(=O)c1ccc(O)cc1O
inactive: dose: 87.5 mg/kg/injection, schedule: Q01DX009 (ip), vehicle: Klucel (hydroxypropylcellulose) (HPC) 96 % of control | dose: 175.0 mg/kg/injection, schedule: Q01DX009 (ip), vehicle: Klucel (hydroxypropylcellulose) (HPC) 100 % of control | dose: 350.0 mg/kg/injection, schedule: Q01DX009 (ip), vehicle: Klucel (hydroxypropylcellulose) (HPC) 102 % of control

OCN(CO)c1ccc2c(c1)Cc1cc(F)ccc1-2
inactive: dose: 100.0 mg/kg/injection, schedule: Q04DX003 (ip), vehicle: acetone 107 % of control | dose: 200.0 mg/kg/injection, schedule: Q04DX003 (ip), vehicle: acetone 98 % of control

CC(=O)N1Cc2ncnc(N)c2C1
inactive: [4] 101 % of control | [5] 95 % of control | [6] 101 % of control

COC(=O)c1cc(C)cc(N(c2ccccc2N)S(=O)(=O)c2ccc(C)cc2)c1C
inactive: [7] 92 % of control | [8] 92 % of control

COc1cccc(N=Nc2c(N)nc(N)nc2N)c1
inactive: dose: 75.0 mg/kg/injection, schedule: Q01DX001 (ip), vehicle: carboxymethylcellulose (CMC) 104 % of control | dose: 150.0 mg/kg/injection, schedule: Q01DX001 (ip), vehicle: carboxymethylcellulose (CMC) 100 % of control | dose: 300.0 mg/kg/injection, schedule: Q01DX001 (ip), vehicle: carboxymethylcellulose (CMC) 109 % of control

O=C1C2CCC(C2)C1C(O)(C(F)(F)Cl)C(F)(F)Cl (stereo not given)
inactive: [9] 92 % of control | [10] 90 % of control | [11] 90 % of control | dose: 400.0 mg/kg/injection, schedule: Q01DX009 (ip), vehicle: saline with Tween-80 92 % of control

CC(=O)CCCC(C)C1CCC2[C@H]3CC=C4C[C@H](O)CC[C@@]4(C)C3CC[C@@]12C (stereo not given in full)
inactive: [12] 96 % of control | [13] 100 % of control | [14] 102 % of control

CCN(CC)c1ccc(/C=C/c2ccncc2)cc1
inactive: [13] 93 % of control | [1] 104 % of control | [14] 92 % of control | [2] 96 % of control | dose: 400.0 mg/kg/injection, schedule: Q01DX009 (ip), vehicle: Klucel (hydroxypropylcellulose) (HPC) 90 % of control | [3] 93 % of control

O=C(O)CC1CC2CCC1C2 (stereo not given)
inactive: dose: 100.0 mg/kg/injection, schedule: Q04DX002 (ip), vehicle: saline with Tween-80 87 % of control | dose: 200.0 mg/kg/injection, schedule: Q04DX002 (ip), vehicle: saline with Tween-80 97 % of control | dose: 400.0 mg/kg/injection, schedule: Q04DX002 (ip), vehicle: saline with Tween-80 87 % of control

CC1(C)OB(C(B2OC(C)(C)C(C)(C)O2)=C(CCl)CCl)OC1(C)C
inactive: [15] 101 % of control | [16] 88 % of control | [17] 103 % of control

O=C(O)CNC(=O)CCl
inactive: [12] 87 % of control | [13] 90 % of control | [1] 94 % of control | [2] 89 % of control

CCCCCC/C=C/C#CCCCCCCCC(=O)O
inactive: dose: 37.5 mg/kg/injection, schedule: Q01DX009 (ip), vehicle: Klucel (hydroxypropylcellulose) (HPC) 105 % of control | dose: 75.0 mg/kg/injection, schedule: Q01DX009 (ip), vehicle: Klucel (hydroxypropylcellulose) (HPC) 98 % of control | dose: 150.0 mg/kg/injection, schedule: Q01DX009 (ip), vehicle: Klucel (hydroxypropylcellulose) (HPC) 102 % of control

NC(CCCCNC(c1ccccc1)(c1ccccc1)c1ccccc1)C(=O)O (stereo not given)
inactive: dose: 12.5 mg/kg/injection, schedule: Q01DX009 (ip), vehicle: saline 102 % of control | dose: 25.0 mg/kg/injection, schedule: Q01DX009 (ip), vehicle: saline 101 % of control | dose: 50.0 mg/kg/injection, schedule: Q01DX009 (ip), vehicle: saline 101 % of control | dose: 100.0 mg/kg/injection, schedule: Q01DX009 (ip), vehicle: saline 97 % of control

O=Nc1ccc(/C=C/C(=O)O)cc1
inactive: dose: 50.0 mg/kg/injection, schedule: Q01DX001 (ip), vehicle: saline 102 % of control | [7] 105 % of control | [8] 100 % of control | dose: 400.0 mg/kg/injection, schedule: Q01DX001 (ip), vehicle: saline 113 % of control

CCCC1(CCC)OOC(CCC)(CCC)OO1
inactive: [9] 96 % of control | [10] 96 % of control | [11] 110 % of control

C[C@]12CCC(=O)C=C1CC[C@H]1[C@@H]3CC[C@](O)(C(=O)CO)[C@@]3(C)CC(=O)[C@@]12SC(N)=O
inactive: dose: 100.0 mg/kg/injection, schedule: Q01DX001 (ip), vehicle: steriod suspending solution 92 % of control | dose: 200.0 mg/kg/injection, schedule: Q01DX001 (ip), vehicle: steriod suspending solution 92 % of control | dose: 400.0 mg/kg/injection, schedule: Q01DX001 (ip), vehicle: steriod suspending solution 104 % of control

COc1ncnc2c1ncn2-c1cccc(C)c1
inactive: dose: 50.0 mg/kg/injection, schedule: Q01DX001 (ip), vehicle: carboxymethylcellulose (CMC) 104 % of control | [4] 98 % of control | [5] 104 % of control | [6] 104 % of control

CC1(C)N=C(N)N=C(N)N1c1ccc(CC(C(=O)Nc2ccc(S(=O)(=O)F)cc2)c2cccc3ccccc23)cc1 (stereo not given)
inactive: [15] 95 % of control | [16] 89 % of control | [17] 89 % of control
